Measurements taken from ChEMBL document CHEMBL2157888, “The therapeutic journey of benzimidazoles: a review” (Bioorg Med Chem, 2012).
≈ marks a conversion by molar mass, not a printed value.

What was measured:
[1] = Aqueous solubility of the compound; assay type: physicochemical; details: water (aqueous)
[2] = target: T1, Gonadotropin-releasing hormone receptor (Homo sapiens, UniProt P30968); test: Inhibition of GnRH receptor
T1 sequence (P30968 whole entry): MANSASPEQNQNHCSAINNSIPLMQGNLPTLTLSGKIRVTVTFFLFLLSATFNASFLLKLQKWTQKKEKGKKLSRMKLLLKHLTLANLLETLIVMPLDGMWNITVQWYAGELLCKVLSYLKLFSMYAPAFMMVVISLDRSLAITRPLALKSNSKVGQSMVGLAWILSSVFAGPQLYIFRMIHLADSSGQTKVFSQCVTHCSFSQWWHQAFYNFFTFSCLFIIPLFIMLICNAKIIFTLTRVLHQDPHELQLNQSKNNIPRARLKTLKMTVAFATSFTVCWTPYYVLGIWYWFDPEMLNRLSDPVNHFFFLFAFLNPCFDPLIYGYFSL

[3] = target: T2, C-C chemokine receptor type 3 (Homo sapiens, UniProt P51677); test: Inhibition of CCR3 receptor
T2 sequence (P51677 whole entry): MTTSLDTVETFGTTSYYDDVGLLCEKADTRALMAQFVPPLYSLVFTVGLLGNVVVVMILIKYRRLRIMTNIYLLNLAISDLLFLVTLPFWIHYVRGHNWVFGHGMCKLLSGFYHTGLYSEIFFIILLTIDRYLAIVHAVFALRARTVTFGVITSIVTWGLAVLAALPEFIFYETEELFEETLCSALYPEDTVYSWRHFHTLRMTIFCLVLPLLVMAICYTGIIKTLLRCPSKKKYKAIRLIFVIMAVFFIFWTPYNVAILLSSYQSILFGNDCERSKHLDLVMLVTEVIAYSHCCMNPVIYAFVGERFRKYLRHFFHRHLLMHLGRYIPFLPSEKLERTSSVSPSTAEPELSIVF

solubility [1] [µg/mL] | IC50 [2] [nM] | Ki [3] [nM] | Structure (SMILES)
55 (≈ 120 µM) | 7 | – | CCc1cc(CN2CCN(c3cccc4[nH]c(-c5ccc(C(C)(C)C)cc5)nc34)CC2)nn1C
100 (≈ 212 µM) | – | – | CCCn1cc(CN2CCN(c3cccc4[nH]c(-c5ccc(C(C)(C)C)cc5)nc34)CC2)nc1C
– | – | 100 | Fc1ccc2c(c1)nc(CC(F)(F)F)n2C1CCNCC1
– | – | 9 | Fc1ccc(SCCCN2CCC(n3c(CC(F)(F)F)nc4cc(F)ccc43)CC2)cc1
